The results in this text go back to US20250129054A1 (Terran Biosciences Inc., priority 2022, published 2025).

The series in a line: Serial tail vein bleed PK study in SD rats: methylone measured in plasma after IV or oral methylone or oral methylone prodrugs. Conditions: for Plasma Concentrations of metabolite methylone: 10 mg/kg, rat; for Tlast: analyte methylone in plasma, oral methylone THP 1-ethyl ester prodrug 10 mg/kg, male SD rats. Format: in vivo, Sprague Dawley rats. As to the method: A pharmacokinetic (PK) study was performed in three male Sprague-Dawley (SD) rats following intravenous (IV) and oral (PO) administration of methylone at 1 mg/kg (IV) and 10 mg/kg (PO) respectively, or test compounds (prodrugs of methylone) at 10 mg/kg (PO). Parent compound (methylone) was measured in plasma.
Samples were sent for method optimization and measurement of parent compound (methylone) via unique calibration lines and following acceptance QC's. Dose formulation concentrations were also measured, and PK parameters were determined (Cmax (ng/mL), Tmax (hr), Cl (ml/min/kg), Vdss (L/kg), t½(hr), AUC0-t (ng/mL*hr), AUC0-inf (ng/mL*hr), MIRT (hr), Bioavailability ([…]) where warranted) using WinNon Lin software. Data (including bioanalytical results and assay performance) were reported in a tabulated format.
Formulation for PO Administration: For PO dosing, the prodrug was formulated in 10% DMSO/20% PEG400/70% water to a concentration of 2 mg free metabolite material/mL. This provided a dose of 10 mg free metabolite/kg when the prodrug was administered PO in 5 mL/kg dosing volumes.
Formulation for IV administration: For IV dosing, rac-methylone was formulated as solution in saline to a concentration of 0.5 mg free metabolite material/mL. This provided a dose of 1 mg free metabolite/kg when administered IV in 2 mL/kg dosing volumes.
The pharmacokinetic properties of the synthesized methylone prodrugs after oral administration in a rat model were assessed. The concentration of methylone was measured in each rat at various sampling timepoints after IV or oral administration of rac-methylone or the synthesized methylone prodrugs to rats.
Dose formulations were made at equivalent concentrations of active compound (methylone) adjusted for molecular weight of the compounds. The synthesized methylone prodrugs or analogs were dosed at 10 mg/kg oral (PO) nominal dose. Nominal doses were used in PK parameter determinations. The parent compound (methylone) was dosed at 1 mg/kg intravenous (IV) and 10 mg/kg (PO).

Where [1] appears, read: 0.500 h after oral dosing of the prodrug, individual animals.
[2] abbreviates: 0.500 h after oral dosing of the prodrug, mean.
[3] abbreviates: 1.00 h after oral dosing of the prodrug, individual animals.
The mark [4] stands for this setting: 1.00 h after oral dosing of the prodrug, mean.
Setting [5] is: 2.00 h after oral dosing of the prodrug, individual animals.
Setting [6] is: 2.00 h after oral dosing of the prodrug, mean.
The mark [7] stands for this setting: 4.00 h after oral dosing of the prodrug, individual animals.
Setting [8] is: 4.00 h after oral dosing of the prodrug, mean.
Where [9] appears, read: 7.00 h after oral dosing of the prodrug, individual animals.
Where [10] appears, read: 7.00 h after oral dosing of the prodrug, mean.
Where [11] appears, read: 24.0 h after oral dosing of the prodrug, individual animals.
The mark [12] stands for this setting: 24.0 h after oral dosing of the prodrug, mean.

As to `CC(C)OC(=O)N(C)C(C)C(=O)c1ccc2c(c1)OCO2` (centres unmarked) [Compound 1B, iso-Propyl N-[2-(1,3-benzodioxol-5-yl)-1-methyl-2-oxo-ethyl]-N-methyl-carbamate], the “Plasma Concentrations of metabolite methylone” value (from here on “Plasma Concentrations”) runs as follows: under setting [1], “BLQ (Below Lower Limit of Quantification (0.5 ng/mL))”; under setting [2], “BLQ (Below Lower Limit of Quantification (0.5 ng/mL))”; under setting [3], “BLQ (Below Lower Limit of Quantification (0.5 ng/mL))”; under setting [4], “BLQ (Below Lower Limit of Quantification (0.5 ng/mL))”; under setting [5], “BLQ (Below Lower Limit of Quantification (0.5 ng/mL))”; under setting [6], “BLQ (Below Lower Limit of Quantification (0.5 ng/mL))”. Moreover, the “Plasma Concentrations” value runs as follows: under setting [7], “BLQ (Below Lower Limit of Quantification (0.5 ng/mL))”; under setting [8], “BLQ (Below Lower Limit of Quantification (0.5 ng/mL))”; under setting [9], “BLQ (Below Lower Limit of Quantification (0.5 ng/mL))”; under setting [10], “BLQ (Below Lower Limit of Quantification (0.5 ng/mL))”; under setting [11], “BLQ (Below Lower Limit of Quantification (0.5 ng/mL))”; under setting [12], “BLQ (Below Lower Limit of Quantification (0.5 ng/mL))”.
As for “1-[[2-(1,3-Benzodioxol-5-yl)-1-methyl-2-oxo-ethyl]-methyl-carbamoyl]oxyethyl tetrahydropyran-4-carboxylate [Compound 6E]”, the Tlast worked out at 7.00 h (individual animal) and 7.00 h (mean).
Consider `CC(C(=O)c1ccc2c(c1)OCO2)N(C)C(=O)OC(C)(C)C` (centres unmarked) [Compound 2A, tert-Butyl N-[2-(1,3-benzodioxol-5-yl)-1-methyl-2-oxo-ethyl]-N-methyl-carbamate], for which the “Plasma Concentrations” value reads like this: under setting [1], “BLQ (Below Lower Limit of Quantification (0.5 ng/mL))”; under setting [2], “BLQ (Below Lower Limit of Quantification (0.5 ng/mL))”; under setting [3], “BLQ (Below Lower Limit of Quantification (0.5 ng/mL))”; under setting [4], “BLQ (Below Lower Limit of Quantification (0.5 ng/mL))”; under setting [5], “BLQ (Below Lower Limit of Quantification (0.5 ng/mL))”; under setting [6], “BLQ (Below Lower Limit of Quantification (0.5 ng/mL))”. In addition, the “Plasma Concentrations” value is reported as “BLQ (Below Lower Limit of Quantification (0.5 ng/mL))” under setting [7]; “BLQ (Below Lower Limit of Quantification (0.5 ng/mL))” under setting [8]; “BLQ (Below Lower Limit of Quantification (0.5 ng/mL))” under setting [9]; “BLQ (Below Lower Limit of Quantification (0.5 ng/mL))” under setting [10]; “BLQ (Below Lower Limit of Quantification (0.5 ng/mL))” under setting [11]; “BLQ (Below Lower Limit of Quantification (0.5 ng/mL))” under setting [12].
In the case of `CC(C(=O)c1ccc2c(c1)OCO2)N(C)C(=O)C(F)(F)F` (centres unmarked) [Compound 2B, N-[2-(1,3-Benzodioxol-5-yl)-1-methyl-2-oxo-ethyl]-2,2,2-trifluoro-N-methyl-acetamide], the “Plasma Concentrations” value is on record as “BLQ (Below Lower Limit of Quantification (0.5 ng/mL))” under setting [1]; “BLQ (Below Lower Limit of Quantification (0.5 ng/mL))” under setting [2]; “BLQ (Below Lower Limit of Quantification (0.5 ng/mL))” under setting [3]; “BLQ (Below Lower Limit of Quantification (0.5 ng/mL))” under setting [4]; “BLQ (Below Lower Limit of Quantification (0.5 ng/mL))” under setting [5]; “BLQ (Below Lower Limit of Quantification (0.5 ng/mL))” under setting [6]. Further, the “Plasma Concentrations” value reads like this: under setting [7], “BLQ (Below Lower Limit of Quantification (0.5 ng/mL))”; under setting [8], “BLQ (Below Lower Limit of Quantification (0.5 ng/mL))”; under setting [9], “BLQ (Below Lower Limit of Quantification (0.5 ng/mL))”; under setting [10], “BLQ (Below Lower Limit of Quantification (0.5 ng/mL))”; under setting [11], “BLQ (Below Lower Limit of Quantification (0.5 ng/mL))”; under setting [12], “BLQ (Below Lower Limit of Quantification (0.5 ng/mL))”.
With `CC(C(=O)c1ccc2c(c1)OCO2)N(C)C(=O)N1CCC(N2CCCCC2)CC1` (centres unmarked) [Compound 9A, N-[2-(1,3-Benzodioxol-5-yl)-1-methyl-2-oxo-ethyl]-N-methyl-4-(1-piperidyl)piperidine-1-carboxamide], the “Plasma Concentrations” value is, setting by setting: under setting [1], “BLQ (Below Lower Limit of Quantification (0.5 ng/mL))”; under setting [2], “BLQ (Below Lower Limit of Quantification (0.5 ng/mL))”; under setting [3], “BLQ (Below Lower Limit of Quantification (0.5 ng/mL))”; under setting [4], “BLQ (Below Lower Limit of Quantification (0.5 ng/mL))”; under setting [5], “BLQ (Below Lower Limit of Quantification (0.5 ng/mL))”; under setting [6], “BLQ (Below Lower Limit of Quantification (0.5 ng/mL))”. For the same compound, the “Plasma Concentrations” value was “BLQ (Below Lower Limit of Quantification (0.5 ng/mL))” under setting [7]; “BLQ (Below Lower Limit of Quantification (0.5 ng/mL))” under setting [8]; “BLQ (Below Lower Limit of Quantification (0.5 ng/mL))” under setting [9]; “BLQ (Below Lower Limit of Quantification (0.5 ng/mL))” under setting [10]; “BLQ (Below Lower Limit of Quantification (0.5 ng/mL))” under setting [11]; “BLQ (Below Lower Limit of Quantification (0.5 ng/mL))” under setting [12].
Regarding `CC(C(=O)c1ccc2c(c1)OCO2)N(C)C(=O)CN(C)C` (centres unmarked) [Compound 3B, N-[2-(1,3-Benzodioxol-5-yl)-1-methyl-2-oxo-ethyl]-2-(dimethylamino)-N-methyl-acetamide], the “Plasma Concentrations” value by setting is: under setting [1], “BLQ (Below Lower Limit of Quantification (0.5 ng/mL))”; under setting [2], “BLQ (Below Lower Limit of Quantification (0.5 ng/mL))”; under setting [3], “BLQ (Below Lower Limit of Quantification (0.5 ng/mL))”; under setting [4], “BLQ (Below Lower Limit of Quantification (0.5 ng/mL))”; under setting [5], “BLQ (Below Lower Limit of Quantification (0.5 ng/mL))”; under setting [6], “BLQ (Below Lower Limit of Quantification (0.5 ng/mL))”. Also, the “Plasma Concentrations” value is recorded as “BLQ (Below Lower Limit of Quantification (0.5 ng/mL))” under setting [7]; “BLQ (Below Lower Limit of Quantification (0.5 ng/mL))” under setting [8]; “BLQ (Below Lower Limit of Quantification (0.5 ng/mL))” under setting [9]; “BLQ (Below Lower Limit of Quantification (0.5 ng/mL))” under setting [10]; “BLQ (Below Lower Limit of Quantification (0.5 ng/mL))” under setting [11]; “BLQ (Below Lower Limit of Quantification (0.5 ng/mL))” under setting [12].
